Assay results taken from ChEMBL document CHEMBL1201862, “PubChem BioAssay data set” (2004).
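Step 1: Grow cells in 96-well plates. Step 2: Expose to compound for 48 hours at 5 concentrations. Step 3: Interpolate endpoints linearly; if unreached, use highest concentration. Here, GI50 denotes the concentration required for 50% inhibition of growth.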 Activity calls are given as the source filed them. Cut-off read from the data, not from the text of the source: active = GI50 up to about 1.1 µM and inactive = higher.

Columns and labels:
Assay in all cases: DTP human tumour cell line panel, 48 h
HCT-116 = tested on: HCT-116
OVCAR-4 = tested on: OVCAR-4
Malme-3M = tested on: Malme-3M
KM12 = tested on: KM12
SK-MEL-28 = tested on: SK-MEL-28
A549 = tested on: A549
SF-295 = tested on: SF-295
786-0 = tested on: 786-0
UACC-257 = tested on: UACC-257
SK-OV-3 = tested on: SK-OV-3
OVCAR-8 = tested on: OVCAR-8
OVCAR-3 = tested on: OVCAR-3
SK-MEL-5 = tested on: SK-MEL-5
SNB-75 = tested on: SNB-75
SF-539 = tested on: SF-539
CAKI-1 = tested on: CAKI-1
SW-620 = tested on: SW-620
LOX IMVI = tested on: LOX IMVI

Measured: GI50

CC(=O)CNC(=O)OC(C)(C)C
inactive: HCT-116 > 100 µM | OVCAR-4 > 100 µM | Malme-3M > 100 µM | KM12 > 100 µM | SK-MEL-28 > 100 µM | A549 > 100 µM | SF-295 > 100 µM | 786-0 > 100 µM | UACC-257 > 100 µM | SK-OV-3 > 100 µM | OVCAR-8 > 100 µM | OVCAR-3 > 100 µM | SK-MEL-5 > 100 µM | SNB-75 > 100 µM | SF-539 > 100 µM | CAKI-1 > 100 µM | SW-620 > 100 µM

COc1cc(C=O)c(-c2cc3c(cc2C2(C)OCCS2)OCO3)c(OC)c1OC (stereo unspecified)
inactive: HCT-116 8 µM | OVCAR-4 17.9 µM | Malme-3M 12 µM | KM12 9.53 µM | SK-MEL-28 4.4 µM | A549 8.71 µM | SF-295 13.3 µM | 786-0 7.4 µM | LOX IMVI 9.12 µM | UACC-257 8.83 µM | SK-OV-3 13.6 µM | OVCAR-8 19.1 µM | OVCAR-3 5.14 µM | SK-MEL-5 9.14 µM | SNB-75 7.89 µM | SF-539 5.85 µM | CAKI-1 11.6 µM | SW-620 7.94 µM

COc1ccc(-c2nc3c(nc2-c2ccc(OC)cc2)C(N)=NS(=O)(=O)N3)cc1
inactive: Malme-3M > 100 µM | KM12 > 100 µM | SK-MEL-28 > 100 µM | A549 > 100 µM | SF-295 > 100 µM | 786-0 > 100 µM | LOX IMVI > 100 µM | UACC-257 > 100 µM | SK-OV-3 > 100 µM | OVCAR-8 > 100 µM | OVCAR-3 > 100 µM | SK-MEL-5 > 100 µM | SNB-75 > 100 µM | SF-539 > 100 µM | CAKI-1 > 100 µM | SW-620 > 100 µM

CCOc1ccc(N2C(=O)/C(=C/c3ccc(N(CCC#N)CCC#N)cc3)N=C2c2cc([N+](=O)[O-])ccc2Cl)cc1
inactive: HCT-116 21.6 µM | OVCAR-4 59 µM | KM12 18.9 µM | SK-MEL-28 7.67 µM | A549 45 µM | SF-295 24.2 µM | 786-0 12.4 µM | LOX IMVI 23 µM | SK-OV-3 > 100 µM | OVCAR-8 35.3 µM | OVCAR-3 17.7 µM | SK-MEL-5 18.6 µM | SNB-75 30.3 µM | SF-539 27.2 µM | CAKI-1 14.8 µM | SW-620 23 µM

O=C(/C=C1/Nc2ccc([N+](=O)[O-])cc2NC1O)c1cccc([N+](=O)[O-])c1 (stereo unspecified)
inactive: HCT-116 26.2 µM | OVCAR-4 4.16 µM | Malme-3M 38.4 µM | SK-MEL-28 39.8 µM | A549 58.7 µM | SF-295 13.6 µM | 786-0 14 µM | LOX IMVI 22.2 µM | UACC-257 82.4 µM | SK-OV-3 20.3 µM | OVCAR-8 19.1 µM | OVCAR-3 35.6 µM | SK-MEL-5 70.5 µM | SNB-75 46.3 µM | SF-539 20.7 µM | CAKI-1 56.9 µM | SW-620 72.1 µM

COC(=O)C1=C(C)N(NC(N)=O)C2(N)N(NC(N)=O)C(C)=C(C(=O)OC)C12C(=O)OC (stereo unspecified)
inactive: HCT-116 > 100 µM | OVCAR-4 > 100 µM | Malme-3M > 100 µM | KM12 > 10 µM | SK-MEL-28 > 100 µM | A549 > 100 µM | SF-295 > 10 µM | 786-0 > 100 µM | LOX IMVI > 100 µM | UACC-257 > 100 µM | SK-OV-3 > 100 µM | OVCAR-8 > 100 µM | OVCAR-3 > 10 µM | SF-539 > 100 µM | CAKI-1 > 100 µM | SW-620 > 100 µM

O=C(/C=C/c1ccc(OCCCCCCCCCCOc2ccc(/C=C/C(=O)c3ccc(Cl)cc3)cc2)cc1)c1ccc(Cl)cc1
inactive: Malme-3M > 100 µM | KM12 > 100 µM | SK-MEL-28 > 100 µM | A549 > 100 µM | SF-295 > 100 µM | 786-0 > 100 µM | LOX IMVI > 100 µM | UACC-257 > 100 µM | SK-OV-3 > 100 µM | OVCAR-8 > 100 µM | OVCAR-3 > 100 µM | SK-MEL-5 > 100 µM | SNB-75 > 100 µM | SF-539 > 100 µM | CAKI-1 > 100 µM | SW-620 > 100 µM

O=C(CC(=O)c1cccc2ccccc12)C(=O)NC1C2CC3CC(C2)CC1C3 (stereo unspecified)
inactive: HCT-116 > 100 µM | OVCAR-4 > 100 µM | Malme-3M > 100 µM | KM12 > 100 µM | A549 > 100 µM | SF-295 > 100 µM | 786-0 > 100 µM | LOX IMVI > 100 µM | UACC-257 > 100 µM | SK-OV-3 > 100 µM | OVCAR-8 > 100 µM | OVCAR-3 > 100 µM | SK-MEL-5 > 100 µM | SF-539 > 100 µM | CAKI-1 > 100 µM | SW-620 > 100 µM

CN(C)C(=S)Nc1nnc(Nc2ccccc2)s1
inactive: HCT-116 > 100 µM | OVCAR-4 > 100 µM | Malme-3M > 100 µM | KM12 > 10 µM | SK-MEL-28 > 100 µM | A549 > 100 µM | 786-0 > 100 µM | LOX IMVI > 100 µM | UACC-257 59 µM | SK-OV-3 > 100 µM | OVCAR-8 > 100 µM | OVCAR-3 > 100 µM | SK-MEL-5 38.7 µM | SNB-75 > 100 µM | SF-539 > 100 µM | CAKI-1 > 100 µM | SW-620 > 100 µM

COc1ccc(/C(=N\NC(=N)N)C(c2ccc(OC)cc2)C2OC(=O)c3ccccc32)cc1 (stereo unspecified)
inactive: HCT-116 > 100 µM | OVCAR-4 > 100 µM | Malme-3M > 100 µM | KM12 > 100 µM | SK-MEL-28 > 100 µM | A549 > 100 µM | SF-295 > 100 µM | 786-0 > 100 µM | LOX IMVI > 100 µM | UACC-257 > 100 µM | SK-OV-3 > 100 µM | OVCAR-8 > 100 µM | OVCAR-3 > 100 µM | SK-MEL-5 > 100 µM | SNB-75 67.5 µM | SF-539 > 100 µM | CAKI-1 > 100 µM | SW-620 > 100 µM

C1=CC(N(c2ccccc2)C2C=CCCC2)CCC1 (stereo unspecified)
inactive: HCT-116 70.1 µM | SK-MEL-28 > 100 µM | A549 > 100 µM | SF-295 85.7 µM | 786-0 > 100 µM | LOX IMVI > 100 µM | SK-OV-3 > 100 µM | OVCAR-8 > 100 µM | SK-MEL-5 84.1 µM | SF-539 > 100 µM | CAKI-1 > 100 µM | SW-620 > 100 µM

COc1ccc(C2S/C(=C\c3ccc([N+](=O)[O-])cc3)C(=O)N2NC(=O)Cc2ccccc2)cc1 (stereo unspecified)
inactive: HCT-116 66.4 µM | OVCAR-4 > 100 µM | Malme-3M > 100 µM | KM12 > 100 µM | SK-MEL-28 > 100 µM | A549 > 100 µM | SF-295 > 100 µM | 786-0 > 100 µM | LOX IMVI > 100 µM | UACC-257 87.5 µM | SK-OV-3 > 100 µM | OVCAR-8 > 100 µM | SK-MEL-5 > 100 µM | SNB-75 53.8 µM | SF-539 > 100 µM | CAKI-1 > 100 µM | SW-620 > 100 µM
